Reference: BindingDB's records for patent US12344612 (Genentech, 2025)

Molecular target: T1, Receptor-interacting serine/threonine-protein kinase 1 (Homo sapiens, UniProt Q13546)
T1 sequence (Q13546 whole entry): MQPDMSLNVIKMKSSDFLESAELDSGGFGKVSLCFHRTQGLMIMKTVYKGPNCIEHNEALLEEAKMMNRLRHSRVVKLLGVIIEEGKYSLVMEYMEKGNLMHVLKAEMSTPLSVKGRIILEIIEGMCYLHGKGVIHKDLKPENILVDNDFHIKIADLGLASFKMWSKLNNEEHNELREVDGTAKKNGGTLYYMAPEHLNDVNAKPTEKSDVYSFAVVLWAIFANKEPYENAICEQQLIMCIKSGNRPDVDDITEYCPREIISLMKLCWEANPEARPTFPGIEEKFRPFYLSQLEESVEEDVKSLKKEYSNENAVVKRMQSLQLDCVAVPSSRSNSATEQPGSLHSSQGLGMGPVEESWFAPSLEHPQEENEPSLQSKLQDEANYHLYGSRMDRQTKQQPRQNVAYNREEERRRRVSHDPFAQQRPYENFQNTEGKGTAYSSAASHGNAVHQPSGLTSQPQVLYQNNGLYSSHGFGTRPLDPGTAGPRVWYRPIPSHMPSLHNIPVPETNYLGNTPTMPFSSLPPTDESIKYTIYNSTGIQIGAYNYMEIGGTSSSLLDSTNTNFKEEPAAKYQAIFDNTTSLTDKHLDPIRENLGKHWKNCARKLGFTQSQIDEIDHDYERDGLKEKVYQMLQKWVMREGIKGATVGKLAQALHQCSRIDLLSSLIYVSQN
Experiment: Not found
Source text: Not found

## O=C(c1nc2n(n1)CC[C@H]2c1ccccc1)C1CC1 (single isomer, unassigned) [US12344612, Example 10]
  Ki: 51 nM
